Columns and labels:
[1] = tested on: MDA-MB-231 tumor xenograft; experiment: Mammary MDA-MB-231 tumor growth in nude mice; format: in vivo
Method: Most of the animals remained in a tumor-free status until day 25, at which recurrence of a tumor was observed.
MDA-MB-231 cells were inoculated into the mammary fat pad of nude mice as described in Methods. […] Tumor growth (A) and body weight (B) were monitored bi-weekly. C, Kaplan-Meier estimates of the survival curves were calculated and plotted. D, At the end of experiment, tumors were collected and weighed. # and *, P<0.05 versus PET control, n=4-6.

MDA-MB-231 = experiment: Crystal violet anti-proliferative assay; format: cell-based, human
Method: (§1) Table 1). The presence of high concentrations of serum had no effects on the potencies of the drug. […] Similar results were observed when the drug exposure time was extended to 48 h. […] The antiproliferative activity of another gold(III) porphyrin complex ([Au^III(TPP)]Cl, gold-1a) in MDA-MB-231 cells was also tested. […] Apoptosis of MDA-MB-231 cells were evaluated by measuring DNA fragmentation.

acetylated histone H4 = experiment: ChIP-PCR of acetylated histone H4 at promoter regions; format: cell-based, human; settings: MDA-MB-231, 24 hours
Method: To further confirm these unexpected observations, ChIP-PCR was performed to quantify the acetylated histone H4 levels at the promoter regions of the above genes. […] Similar levels of acetylated histone H4 were only observed at 24 hours after treatment.
MDA-MB-231 cells were treated with different drugs for 24 hours. ChiP-PCR was performed for analyzing the levels of acetylated histone H4 at the promoter regions of CTNNB1, WIF1, WNT5B, WNT1, WISP1 and ESR1, using antibody recognizing histone H4 acetylated at lysines 5, 8, 12, and 16. Bar charts represented the quantitative results by real time PCR analysis after normalization against the input DNA. Representative agarose gel images were shown at the bottom. […] Equal protein loading was confirmed by Amido black staining. *, P<0.01 versus vehicle control, n=3.

histone H4 acetylation = experiment: Western blotting of global acetylated histone H4; format: cell-based, human; settings: MDA-MB-231, six and 24 hours
[2] = tested on: human breast carcinoma cells (BT474, MCF-7, T47D, MDA-MB-231, SKBR3); experiment: Crystal violet assay, statements on the whole panel; format: cell-based; settings: five breast carcinoma cell lines
Method: as §1

β-catenin = β-catenin protein level, nuclear activity, phosphorylation and ubiquitination; format: cell-based, human; settings: MDA-MB-231 cells
Description: Aberrant activation of the Wnt/β-catenin signalling plays a key role in the development of many human cancer diseases. Intracellular accumulation of β-catenin protein has been observed in a large portion of human breast tumors. […] On the contrary, cisplatin had no influence on both the protein levels and nuclear activities of β-catenin. In the absence of a Wnt signal, β-catenin is phosphorylated by glycogen synthase kinase-3beta, which facilitates the subsequent ubiquitination and proteasome degradation.

T47D = experiment: Crystal violet anti-proliferative assay; format: cell-based, human
Method: as §1

SKBR3 = experiment: Crystal violet anti-proliferative assay; format: cell-based, human
Method: as §1

BT474 = experiment: Crystal violet anti-proliferative assay; format: cell-based, human
Method: as §1

MCF7 = experiment: Crystal violet anti-proliferative assay; format: cell-based, human
Method: as §1

[3] = intraductal 15 mg/kg, end of experiment

[Au^III(TPP)]Cl [gold-1a]
inhibition of breast tumor growth ([1]; sub-lethal concentrations): no inhibition | less effective than gold-2a (growth inhibition curves) (MDA-MB-231; MDA-MB-231 cells, non-linear regression): ~1000 fold

CC(/C=C/C(=O)NO)=C\[C@@H](C)C(=O)c1ccc(N(C)C)cc1 [TSA, trichostatin A]
acetylated histone H4 at CTNNB1 promoter (acetylated histone H4): not significantly altered | acetylated histone H4 at ESR1 promoter (acetylated histone H4): increased | acetylated histone H4 at WIF1 promoter (acetylated histone H4): no significant effects | acetylated histone H4 at WISP1 promoter (acetylated histone H4): not significantly altered | acetylated histone H4 at WNT1 promoter (acetylated histone H4): no significant effects | acetylated histone H4 at WNT5B promoter (acetylated histone H4): no significant effects | global histone H4 acetylation (histone H4 acetylation): significant induction

N.N.[Cl][Pt][Cl] [cisplatin]
IC50 values higher when compared to gold-2a [2]: 100-3000 times | animals died ([1]; after two intraductal injections): ~40% | average tumor weights [1, 3]: 0.42 g | tumor weight decreased compared to control group [1, 3]: 34% | rates of tumor growth compared to gold-2a ([1]; intraductal, same dosage (15 mg/kg)): attenuated the rates of tumor growth to a much lesser degree | nuclear transcriptional activities of β-catenin (β-catenin): no influence | protein levels of β-catenin (β-catenin; from four hours, 0.5% and 10% FBS): no influence | IC50 (T47D; 24 hours, 0.5% FBS): 66.5 ± 12.4 µM | IC50 (T47D; 24 hours, 10% FBS): 99.4 ± 5.71 µM | IC50 (T47D; 48 hours, 0.5% FBS): 7.76 ± 5.54 µM | IC50 (T47D; 48 hours, 10% FBS): 6.69 ± 3.14 µM | IC50 (SKBR3; 24 hours, 0.5% FBS): 65.9 ± 25.5 µM | IC50 (SKBR3; 24 hours, 10% FBS): 76.3 ± 33.8 µM | IC50 (SKBR3; 48 hours, 0.5% FBS): 33.9 ± 11 µM | IC50 (SKBR3; 48 hours, 10% FBS): 41 ± 7.91 µM | IC50 (BT474; 24 hours, 0.5% FBS): 49 ± 0.5 µM | IC50 (BT474; 24 hours, 10% FBS): 45.1 ± 8.2 µM | IC50 (BT474; 48 hours, 0.5% FBS): 1.6 ± 0.53 µM | IC50 (BT474; 48 hours, 10% FBS): 2.89 ± 0.9 µM | IC50 (MCF7; 24 hours, 0.5% FBS): 14.3 ± 1.46 µM | IC50 (MCF7; 24 hours, 10% FBS): 20.1 ± 4.92 µM | IC50 (MCF7; 48 hours, 0.5% FBS): 10.1 ± 1.47 µM | IC50 (MCF7; 48 hours, 10% FBS): 15.9 ± 2.33 µM | IC50 (MDA-MB-231; 24 hours, 0.5% FBS): 7.37 ± 1.19 µM | IC50 (MDA-MB-231; 24 hours, 10% FBS): 21 ± 11.2 µM | IC50 (MDA-MB-231; 48 hours, 0.5% FBS): 6.52 ± 0.48 µM | IC50 (MDA-MB-231; 48 hours, 10% FBS): 18.4 ± 3.42 µM

— US8563712B2, “Hydroxy-substituted gold(III) porphyrin complexes as histone deacetylase inhibitors” (The University of Hong Kong, priority 2009, dated 2013)
